The results in this text go back to paper PMC10004634 (PLOS ONE, 2023).

Like-named read-outs stand apart in the source and are kept apart here.

Common to all, as to assay: biochemical
Common to all, as to set-up: KINOMEscan scanMAX competition binding, DNA-tagged kinases, qPCR read-out, percent control at 300 nM
On the technique in general: Quantitative PCR measures a nucleic acid by following its amplification.

The target of test [1] is T1, VEGFR2 (Homo sapiens, UniProt P35968).
T1 construct: gene KDR
T1 sequence (P35968 whole entry): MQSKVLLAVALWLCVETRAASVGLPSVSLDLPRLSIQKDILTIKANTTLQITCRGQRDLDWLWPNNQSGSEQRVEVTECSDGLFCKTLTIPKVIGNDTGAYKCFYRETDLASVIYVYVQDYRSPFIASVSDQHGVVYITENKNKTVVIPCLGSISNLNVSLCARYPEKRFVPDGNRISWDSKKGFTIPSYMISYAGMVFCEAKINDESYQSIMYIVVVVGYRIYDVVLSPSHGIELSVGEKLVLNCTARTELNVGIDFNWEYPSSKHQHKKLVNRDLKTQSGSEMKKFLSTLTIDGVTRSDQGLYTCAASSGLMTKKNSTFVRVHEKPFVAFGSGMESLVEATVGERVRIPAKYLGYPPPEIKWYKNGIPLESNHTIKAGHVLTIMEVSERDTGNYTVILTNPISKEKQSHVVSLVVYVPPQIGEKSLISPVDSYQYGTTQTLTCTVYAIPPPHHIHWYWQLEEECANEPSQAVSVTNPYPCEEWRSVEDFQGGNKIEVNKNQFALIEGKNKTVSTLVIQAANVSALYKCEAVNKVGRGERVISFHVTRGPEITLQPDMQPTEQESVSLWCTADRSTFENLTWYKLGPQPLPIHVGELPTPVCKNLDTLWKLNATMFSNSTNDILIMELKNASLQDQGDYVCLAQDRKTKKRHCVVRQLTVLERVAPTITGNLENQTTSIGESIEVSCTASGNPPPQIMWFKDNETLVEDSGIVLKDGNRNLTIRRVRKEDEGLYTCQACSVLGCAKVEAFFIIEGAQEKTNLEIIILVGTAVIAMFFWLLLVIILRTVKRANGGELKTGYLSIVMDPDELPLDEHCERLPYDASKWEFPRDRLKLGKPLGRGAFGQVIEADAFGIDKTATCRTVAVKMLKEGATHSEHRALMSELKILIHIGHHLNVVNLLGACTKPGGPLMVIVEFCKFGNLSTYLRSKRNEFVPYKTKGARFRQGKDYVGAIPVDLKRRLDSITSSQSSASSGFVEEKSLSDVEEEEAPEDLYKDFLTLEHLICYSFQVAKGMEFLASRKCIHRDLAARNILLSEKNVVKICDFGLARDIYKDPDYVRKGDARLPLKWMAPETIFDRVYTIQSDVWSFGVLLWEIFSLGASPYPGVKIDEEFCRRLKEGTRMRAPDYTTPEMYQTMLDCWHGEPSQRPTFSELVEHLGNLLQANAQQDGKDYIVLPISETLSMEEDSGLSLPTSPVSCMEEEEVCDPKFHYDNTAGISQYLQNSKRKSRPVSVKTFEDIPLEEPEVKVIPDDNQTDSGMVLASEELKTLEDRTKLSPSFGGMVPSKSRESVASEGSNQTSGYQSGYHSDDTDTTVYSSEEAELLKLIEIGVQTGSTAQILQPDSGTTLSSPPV

Test [2] has as its target LTK (Homo sapiens, UniProt P29376).
Test [3] deals with T2, HIPK4 (Homo sapiens, UniProt Q8NE63).
T2 sequence (Q8NE63 1-616): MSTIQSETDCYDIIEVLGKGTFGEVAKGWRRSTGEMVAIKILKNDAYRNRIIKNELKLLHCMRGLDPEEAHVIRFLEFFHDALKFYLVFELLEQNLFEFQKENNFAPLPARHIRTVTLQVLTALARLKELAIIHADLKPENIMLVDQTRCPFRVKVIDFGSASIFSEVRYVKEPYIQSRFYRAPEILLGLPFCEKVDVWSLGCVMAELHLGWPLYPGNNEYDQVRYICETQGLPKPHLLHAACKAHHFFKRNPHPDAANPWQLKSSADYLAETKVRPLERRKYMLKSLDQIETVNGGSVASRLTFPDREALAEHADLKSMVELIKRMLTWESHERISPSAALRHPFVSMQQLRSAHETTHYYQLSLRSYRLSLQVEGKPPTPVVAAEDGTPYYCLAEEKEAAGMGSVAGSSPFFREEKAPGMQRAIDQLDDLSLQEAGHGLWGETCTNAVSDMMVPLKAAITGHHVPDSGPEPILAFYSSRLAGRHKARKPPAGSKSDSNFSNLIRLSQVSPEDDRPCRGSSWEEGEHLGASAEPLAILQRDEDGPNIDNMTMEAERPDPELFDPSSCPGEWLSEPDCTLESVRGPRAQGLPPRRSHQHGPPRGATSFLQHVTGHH

The target in test [4] is AAK1 (Homo sapiens, UniProt Q2M2I8).
AAK1, sequence (Q2M2I8 whole entry): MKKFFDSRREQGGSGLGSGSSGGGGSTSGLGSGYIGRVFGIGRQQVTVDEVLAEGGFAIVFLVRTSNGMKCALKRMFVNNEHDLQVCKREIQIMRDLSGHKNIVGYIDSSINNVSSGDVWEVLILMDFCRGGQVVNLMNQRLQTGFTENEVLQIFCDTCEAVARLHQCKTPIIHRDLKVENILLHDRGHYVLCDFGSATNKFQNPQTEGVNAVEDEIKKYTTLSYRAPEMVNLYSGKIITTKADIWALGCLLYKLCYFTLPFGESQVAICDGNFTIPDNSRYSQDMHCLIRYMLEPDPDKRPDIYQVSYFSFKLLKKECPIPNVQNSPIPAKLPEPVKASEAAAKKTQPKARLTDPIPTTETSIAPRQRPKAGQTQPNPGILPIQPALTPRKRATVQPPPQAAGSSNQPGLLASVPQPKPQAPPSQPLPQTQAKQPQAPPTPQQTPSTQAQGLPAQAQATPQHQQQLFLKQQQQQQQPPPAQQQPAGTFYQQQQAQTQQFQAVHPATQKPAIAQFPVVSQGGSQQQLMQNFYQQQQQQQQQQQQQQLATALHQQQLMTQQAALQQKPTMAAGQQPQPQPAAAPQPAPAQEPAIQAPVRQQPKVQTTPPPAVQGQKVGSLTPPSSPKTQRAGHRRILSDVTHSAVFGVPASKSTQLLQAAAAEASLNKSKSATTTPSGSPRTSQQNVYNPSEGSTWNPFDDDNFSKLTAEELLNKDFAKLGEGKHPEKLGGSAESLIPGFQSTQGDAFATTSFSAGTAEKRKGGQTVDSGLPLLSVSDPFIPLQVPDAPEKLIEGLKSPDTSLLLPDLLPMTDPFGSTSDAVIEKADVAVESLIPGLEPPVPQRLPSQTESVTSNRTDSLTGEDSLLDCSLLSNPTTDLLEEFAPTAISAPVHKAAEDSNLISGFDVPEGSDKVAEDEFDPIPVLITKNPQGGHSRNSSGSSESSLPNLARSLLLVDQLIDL
Test [5] has as its target T3, CDK11 (Homo sapiens, UniProt Q9BWU1).
T3 construct: gene CDK19

The target of test [6] is T4, CDKL2 (Homo sapiens, UniProt Q92772).
T4 sequence (Q92772 1-493): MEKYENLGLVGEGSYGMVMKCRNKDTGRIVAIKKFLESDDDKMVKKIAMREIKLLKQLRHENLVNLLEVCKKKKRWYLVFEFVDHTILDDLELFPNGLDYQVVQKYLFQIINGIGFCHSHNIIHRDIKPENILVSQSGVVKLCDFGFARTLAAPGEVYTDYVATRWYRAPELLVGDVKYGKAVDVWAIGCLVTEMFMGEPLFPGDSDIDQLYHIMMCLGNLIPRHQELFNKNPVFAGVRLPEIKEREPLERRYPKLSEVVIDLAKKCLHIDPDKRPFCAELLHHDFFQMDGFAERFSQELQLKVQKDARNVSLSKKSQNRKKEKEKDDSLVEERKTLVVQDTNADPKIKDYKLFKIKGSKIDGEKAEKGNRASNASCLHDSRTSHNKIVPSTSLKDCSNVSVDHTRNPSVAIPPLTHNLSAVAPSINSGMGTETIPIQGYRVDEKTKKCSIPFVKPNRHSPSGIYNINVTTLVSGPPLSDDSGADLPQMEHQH

The target of test [7] is T5, JAK2(JH1domain-catalytic) (Homo sapiens, UniProt O60674).
T5 construct: JH1domain-catalytic

Test [8] addresses AKT3 (Homo sapiens, UniProt Q9Y243).
For test [9], the target named is T6, ICK (Homo sapiens, UniProt Q9UPZ9).
T6 construct: gene CILK1
T6 sequence (Q9UPZ9 1-632): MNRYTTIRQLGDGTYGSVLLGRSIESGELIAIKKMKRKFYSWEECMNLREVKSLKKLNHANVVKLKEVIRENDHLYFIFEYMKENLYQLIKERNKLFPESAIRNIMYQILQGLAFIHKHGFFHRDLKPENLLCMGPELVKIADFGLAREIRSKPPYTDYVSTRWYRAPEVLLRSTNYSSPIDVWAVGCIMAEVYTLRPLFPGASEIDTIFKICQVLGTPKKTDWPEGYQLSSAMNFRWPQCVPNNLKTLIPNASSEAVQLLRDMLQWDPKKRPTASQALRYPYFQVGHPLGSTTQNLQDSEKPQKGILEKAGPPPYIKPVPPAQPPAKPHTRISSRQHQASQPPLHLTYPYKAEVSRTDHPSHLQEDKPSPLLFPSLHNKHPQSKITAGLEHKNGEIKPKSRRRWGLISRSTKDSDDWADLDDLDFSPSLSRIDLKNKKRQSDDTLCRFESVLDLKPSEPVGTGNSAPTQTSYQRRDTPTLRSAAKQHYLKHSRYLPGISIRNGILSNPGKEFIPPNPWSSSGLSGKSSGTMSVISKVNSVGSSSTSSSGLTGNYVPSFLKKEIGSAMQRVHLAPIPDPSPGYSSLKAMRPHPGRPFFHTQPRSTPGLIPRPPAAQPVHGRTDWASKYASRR

In test [10] the target is FLT1 (Homo sapiens, UniProt P17948).
FLT1, sequence (P17948 whole entry): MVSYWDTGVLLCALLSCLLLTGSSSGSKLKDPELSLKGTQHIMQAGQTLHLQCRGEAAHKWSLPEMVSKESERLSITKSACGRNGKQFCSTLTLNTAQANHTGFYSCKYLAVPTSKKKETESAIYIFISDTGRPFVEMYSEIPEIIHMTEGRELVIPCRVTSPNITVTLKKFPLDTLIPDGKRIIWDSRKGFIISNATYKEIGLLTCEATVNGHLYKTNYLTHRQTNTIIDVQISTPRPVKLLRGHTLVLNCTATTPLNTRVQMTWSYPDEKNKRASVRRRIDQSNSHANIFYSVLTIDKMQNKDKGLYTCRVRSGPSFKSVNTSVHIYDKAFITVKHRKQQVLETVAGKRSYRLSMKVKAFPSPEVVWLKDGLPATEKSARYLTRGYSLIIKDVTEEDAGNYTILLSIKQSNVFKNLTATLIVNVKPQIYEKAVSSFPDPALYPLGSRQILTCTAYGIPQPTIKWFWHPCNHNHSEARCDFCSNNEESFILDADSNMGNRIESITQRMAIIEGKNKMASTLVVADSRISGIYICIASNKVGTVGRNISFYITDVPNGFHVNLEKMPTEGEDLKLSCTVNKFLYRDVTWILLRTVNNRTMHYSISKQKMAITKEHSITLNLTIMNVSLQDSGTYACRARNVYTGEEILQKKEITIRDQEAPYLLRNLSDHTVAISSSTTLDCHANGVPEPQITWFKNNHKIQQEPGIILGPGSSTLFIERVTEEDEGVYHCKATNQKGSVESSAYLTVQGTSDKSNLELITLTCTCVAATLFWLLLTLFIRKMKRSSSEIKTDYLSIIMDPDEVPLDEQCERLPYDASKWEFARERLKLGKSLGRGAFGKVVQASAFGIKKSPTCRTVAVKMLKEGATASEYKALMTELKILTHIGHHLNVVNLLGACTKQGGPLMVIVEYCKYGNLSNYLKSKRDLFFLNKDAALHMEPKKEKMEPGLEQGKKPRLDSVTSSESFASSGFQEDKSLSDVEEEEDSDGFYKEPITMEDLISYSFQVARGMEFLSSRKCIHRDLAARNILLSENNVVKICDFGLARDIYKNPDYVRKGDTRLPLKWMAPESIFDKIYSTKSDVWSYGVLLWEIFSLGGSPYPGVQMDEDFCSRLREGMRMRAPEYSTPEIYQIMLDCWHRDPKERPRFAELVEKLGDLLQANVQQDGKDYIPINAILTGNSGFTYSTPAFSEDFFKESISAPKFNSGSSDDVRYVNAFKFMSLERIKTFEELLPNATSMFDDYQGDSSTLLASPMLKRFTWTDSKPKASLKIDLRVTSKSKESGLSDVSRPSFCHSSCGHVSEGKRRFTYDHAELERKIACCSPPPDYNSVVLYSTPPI
Test [11] addresses EGFR(L858R) (Homo sapiens, UniProt P00533, L858R).
[12] abbreviates: read-out: Percent control / Zanubrutinib.
Where [13] appears, read: read-out: Percent control / Tirabrutinib.
Setting [14] is: read-out: Percent control / Ibrutinib.
Where [15] appears, read: read-out: Percent control / Acalabrutinib.

T3 sequence (Q9BWU1 whole entry): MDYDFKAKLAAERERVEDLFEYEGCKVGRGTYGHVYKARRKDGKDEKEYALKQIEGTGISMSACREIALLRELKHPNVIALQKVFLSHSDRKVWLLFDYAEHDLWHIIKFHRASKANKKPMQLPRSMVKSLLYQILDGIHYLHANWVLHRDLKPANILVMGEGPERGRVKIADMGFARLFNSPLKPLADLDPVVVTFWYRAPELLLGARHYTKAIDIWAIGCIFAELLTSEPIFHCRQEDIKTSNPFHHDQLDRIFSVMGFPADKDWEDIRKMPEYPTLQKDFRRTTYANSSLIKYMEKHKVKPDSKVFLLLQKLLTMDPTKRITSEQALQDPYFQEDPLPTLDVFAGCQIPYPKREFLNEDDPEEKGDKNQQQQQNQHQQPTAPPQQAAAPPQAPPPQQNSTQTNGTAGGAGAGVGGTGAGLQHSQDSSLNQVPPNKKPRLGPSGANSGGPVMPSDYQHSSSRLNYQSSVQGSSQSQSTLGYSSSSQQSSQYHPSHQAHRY
LTK, sequence (P29376 whole entry): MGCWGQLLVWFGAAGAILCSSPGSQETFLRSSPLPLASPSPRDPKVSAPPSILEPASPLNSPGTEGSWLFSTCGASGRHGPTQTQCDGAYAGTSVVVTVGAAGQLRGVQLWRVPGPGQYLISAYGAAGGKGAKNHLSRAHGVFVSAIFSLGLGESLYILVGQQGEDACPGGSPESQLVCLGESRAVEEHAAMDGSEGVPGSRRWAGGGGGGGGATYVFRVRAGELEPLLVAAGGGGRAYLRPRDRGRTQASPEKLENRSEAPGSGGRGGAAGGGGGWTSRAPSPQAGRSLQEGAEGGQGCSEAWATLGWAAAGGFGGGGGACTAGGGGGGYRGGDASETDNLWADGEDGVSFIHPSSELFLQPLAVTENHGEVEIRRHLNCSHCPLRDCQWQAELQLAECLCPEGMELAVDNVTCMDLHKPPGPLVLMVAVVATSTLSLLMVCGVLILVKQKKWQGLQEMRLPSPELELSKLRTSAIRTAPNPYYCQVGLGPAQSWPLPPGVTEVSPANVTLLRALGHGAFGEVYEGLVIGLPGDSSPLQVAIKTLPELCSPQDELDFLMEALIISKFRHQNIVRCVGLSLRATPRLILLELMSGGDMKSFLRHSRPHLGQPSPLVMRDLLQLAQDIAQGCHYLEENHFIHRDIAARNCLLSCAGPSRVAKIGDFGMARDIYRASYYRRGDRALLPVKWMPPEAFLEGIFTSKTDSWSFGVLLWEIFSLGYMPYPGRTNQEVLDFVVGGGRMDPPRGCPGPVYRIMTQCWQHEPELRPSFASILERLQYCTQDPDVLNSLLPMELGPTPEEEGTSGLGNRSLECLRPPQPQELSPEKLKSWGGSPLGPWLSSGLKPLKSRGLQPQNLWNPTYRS

As to `C=CC(=O)N1CCC([C@@H]2CCNc3c(C(N)=O)c(-c4ccc(Oc5ccccc5)cc4)nn32)CC1` [Zanubrutinib], the remaining binding at 0.3 µM in test [1] (setting [12]) is 100%; in test [2] (setting [12]) it was 92%; in test [3] (setting [12]) it was 87%; in test [4] (setting [12]), 96%; in [5] (setting [12]), 83%; in [6] (setting [12]), 100%. Besides, the remaining binding at 0.3 µM in test [7] (setting [12]) came out at 96%; in test [8] (setting [12]) it was 84%.

`CC#CC(=O)N1CC[C@@H](n2c(=O)n(-c3ccc(Oc4ccccc4)cc3)c3c(N)ncnc32)C1` [Tirabrutinib]: the remaining binding at 0.3 µM was determined as 100% in [2] (setting [13]); 60% in test [9] (setting [13]); 57% in [4] (setting [13]); 74% in test [10] (setting [13]); 97% in test [11] (setting [13]); 93% in test [5] (setting [13]). Also, the values for the remaining binding at 0.3 µM in test [6] (setting [13]), in [7] (setting [13]) and in [8] (setting [13]) were 84%, 77% and 83%, respectively.

As to `C=CC(=O)N1CCC[C@@H](n2nc(-c3ccc(Oc4ccccc4)cc3)c3c(N)ncnc32)C1` [Ibrutinib], the remaining binding at 0.3 µM is 95% in test [1] (setting [14]); 78% in test [2] (setting [14]); 61% in test [9] (setting [14]); 98% in test [3] (setting [14]); 82% in [10] (setting [14]); 5.6% in test [11] (setting [14]). In addition, the remaining binding at 0.3 µM in test [5] (setting [14]) was found to be 81%; in test [6] (setting [14]), 99%.

On to `CC#CC(=O)N1CCC[C@H]1c1nc(-c2ccc(C(=O)Nc3ccccn3)cc2)c2c(N)nccn12` [Acalabrutinib], for which the remaining binding at 0.3 µM is 98% in test [1] (setting [15]); 100% in [2] (setting [15]); 82% in test [9] (setting [15]); 85% in [3] (setting [15]); 94% in test [4] (setting [15]); 89% in [10] (setting [15]). The remaining binding at 0.3 µM in test [11] (setting [15]) came out at 93%; in [5] (setting [15]), 74%; in test [7] (setting [15]) it was 85%; in [8] (setting [15]), 95%.
